Measurements published in patent publication US20240148714A1, “Triple Negative Breast Cancer Treatment Method” (Exelixis, Inc., priority 2016, published 2024).
Entries after “also recorded” stand apart in the source; their conditions may differ.

Experiments:
[1] = tested on: plasma biomarkers; experiment: Circulating biomarker assays: plasma proteins (multiplex arrays, ELISA); assay type: in vivo, human; set-up: plasma VEGF R2, Median / plasma bFGF, Median / plasma sPLT-3, Median / plasma VEGF, Median / plasma VEGF-D, Median / plasma sMET, Median: unit not given beside the values
Description: Circulating Biomarker Assays: Potential biomarkers of cabozantinib activity were identified by measuring plasma proteins at baseline, on day 8 of therapy, on day 1 of each cycle of therapy, and, if available, at the time of progression. Eight milliliters of blood was collected in purple top (plasma EDTA) vacutainers and shipped on wet ice to a Clinical Laboratory Improvement Amendments-certified core in the Steele Laboratories (Massachusetts General Hospital), where whole blood was separated by centrifugation into cellular fraction and plasma. The fraction of stem/progenitor cell, lymphocyte, and myeloid populations of total circulating mononuclear cells were counted by flow cytometry using a LSR-II cytometer and FACSDiva software in fresh blood samples using the following markers: CD3, CD4, CD8, CD14, CD25, CD34, CD45, CD56, CD127, and CD133 (Becton Dickinson, Franklin Lakes, NJ, www.bd.com). Plasma was prepared in the standard fashion and stored at −78° C. until collection and analysis of all samples. The biomarkers measured included VEGF, placental growth factor (PlGF), VEGF-C, VEGF-D, soluble VEGFR1 (sVEGFR1), basic fibroblast growth factor (bFGF), and sTie-2 (using a 7-plex Growth Factor array) and granulocyte-macrophage colony stimulating factor (GM-CSF), interferon gamma (IFN-g), tumor necrosis factor alpha (TNF-a), and interleukin-1beta (IL-1b), IL-2, IL-6, IL-8, IL-10, and IL-12 heterodimer p70 (using a 9-plex Inflammatory Factor array; both Meso Scale Discovery, Gaithersburg, MD, www.mesoscale.com); and HGF, sMET, carbonic anhydrase IX (CAIX), stromal cell-derived factor 1 a (SDF1a), and sVEGFR2 by single analyte enzyme-linked immunosorbent assay (R&D Systems, Minneapolis, MN, www.rndsystems.com). Descriptive statistics were used to summarize biomarker values at protocol-specific time points. […] The Wilcoxon signed rank test assessed biomarker change from day 1 to 8. Mixed effects linear models assessed the change in biomarker values at days 1, 8, 22, 43, and 64; values beyond day 64 were not analyzed because of the small number of patients still on protocol. In the mixed effects linear model, the fixed effects were times of assessment, and patients were entered as a random effect. Logarithmic transformation was used to achieve normality, when applicable. Baseline biomarkers were stratified by using the median values for the entire cohort. The log-rank test compared PFS among patients with low or high baseline sMET. All tests were conducted with two-sided […]. The Benjamini-Hochberg procedure was used to adjust p values to control the false discovery rate from evaluating multiple circulating biomarkers.

[2] = Participant-reported pain questionnaire and analgesic use; assay type: in vivo, human
Description: Study Design and Treatment: As indicated, this was a single-arm, two-stage phase II study assessing the efficacy of cabozantinib monotherapy in patients with mTNBC. Treatment consisted of oral dosing of cabozantinib at 60 mg daily over a 21-day cycle. Patients underwent radiographic restaging at 6 weeks and every 9 weeks thereafter. Patients with complete or partial RECIST responses continued to receive study treatment, whereas those with progressive disease were taken off study. Dose reductions for toxicity occurred if patients experienced grade 3 or 4 neutropenia or thrombocytopenia, or nonhematologic adverse events. From the starting dose of 60 mg daily, doses were reduced as needed to 40 and 20 mg daily. For the purposes of determining the effect of cabozantinib treatment on pain and analgesic medication use, pain was assessed by a participant-reported questionnaire, and daily analgesic medication usage was recorded. These were completed at baseline and during week 3, 6, and every 6 weeks thereafter until the date of the participant's last follow-up visit.

[3] = baseline to day 22, maintained at day 64

## COc1cc2nccc(Oc3ccc(NC(=O)C4(C(=O)Nc5ccc(F)cc5)CC4)cc3)c2cc1OC [cabozantinib]
[1]; Day 1 (baseline)
  plasma VEGF R2, Median: 8.872
  plasma VEGF, Median: 98
  plasma VEGF-D, Median: 1.062
  plasma bFGF, Median: 39
  plasma sMET, Median: 795
  plasma sPLT-3, Median: 1.24
[1]; Day 8
  plasma VEGF R2, Median: 8.475
  plasma VEGF, Median: 188
  plasma VEGF-D, Median: 1.419
  plasma bFGF, Median: 41
  plasma sMET, Median: 890
  plasma sPLT-3, Median: 50
[1]; Day 22
  plasma VEGF R2, Median: 6.726
  plasma VEGF, Median: 206
  plasma VEGF-D, Median: 1.582
  plasma bFGF, Median: 28
  plasma sMET, Median: 902
  plasma sPLT-3, Median: 90
[1]; Day 43
  plasma VEGF R2, Median: 5.812
  plasma VEGF, Median: 206
  plasma VEGF-D, Median: 1.437
  plasma bFGF, Median: 33
  plasma sMET, Median: 903
  plasma sPLT-3, Median: 124
[1]; Day 64
  plasma VEGF R2, Median: 5.968
  plasma VEGF-D, Median: 1.429
  plasma bFGF, Median: 21
  plasma sMET, Median: 923
  plasma sPLT-3, Median: 87
[1]; [3]
  change in plasma PIGF: increases
  change in plasma VEGF: increases
  change in plasma VEGF-D: increases
[1]; day 8
  change in plasma HGF: initially decreased
[1]; day 22
  change in plasma SDF1a: transiently increased; also recorded: increases
[1]; day 64
  change in plasma HGF: increased
[1]; days 43 and 64
  change in plasma CAIX: increases
  change in plasma sVEGFR2: significantly decreased
[1]; in vivo
  change in plasma bFGF over time: did not significantly change
  change in plasma sMET over time: did not significantly change
  change in plasma sTIE-2 over time: did not significantly change
  change in plasma sVEGFR1 over time: did not significantly change
[2]; of 21 patients with pain at entry who completed a survey
  patients reporting a decrease in pain since baseline: 52%
[2]; of the eleven with decreased pain
  patients with decreased pain who discontinued pain medications: 10 patients
